According to ChEMBL document CHEMBL1201862, “PubChem BioAssay data set” (2004):
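Tested at 5 concentrations; 48 h exposure; 96-well plates; endpoints linearly interpolated, else capped at highest concentration. Here, GI50 denotes the concentration required for 50% inhibition of growth.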 Active and inactive are the calls of the source. No stated cut-off is given here; in the data, active = GI50 up to about 1.1 µM and inactive = higher.

How the values were obtained:
Assay in all cases: DTP human tumour cell line panel, 48 h
[1] = test system: NCI-H226
[2] = test system: UACC-257
[3] = test system: U-251
[4] = test system: M14
[5] = test system: MOLT-4
[6] = test system: OVCAR-3
[7] = test system: HL-60
[8] = test system: SW-620
[9] = test system: BT-549
[10] = test system: SK-MEL-2
[11] = test system: HT-29
[12] = test system: HOP-62
[13] = test system: OVCAR-5
[14] = test system: NCI-H460
[15] = test system: SNB-19
[16] = test system: LOX IMVI
[17] = test system: DU-145
[18] = test system: Hs-578T
[19] = test system: K562
[20] = test system: A498

Measured: GI50

CC1(C)CC(=O)C(=CNC(=O)c2ccncc2)C(=O)C1
inactive: [1] > 100 µM | [2] > 100 µM | [3] > 100 µM | [4] > 100 µM | [5] > 100 µM | [6] > 100 µM | [7] 71.3 µM | [8] > 100 µM | [9] > 100 µM | [10] > 100 µM | [11] > 100 µM | [12] > 100 µM | [13] > 100 µM | [14] > 100 µM | [15] > 100 µM | [16] > 100 µM | [17] > 100 µM | [18] > 100 µM

CC(C)Oc1c(-c2c(OC(C)C)c(=O)c2=O)c(=O)c1=O
inactive: [1] > 78.3 µM | [2] > 56.4 µM | [3] > 36.5 µM | [19] > 31.8 µM | [4] > 100 µM | [5] > 36.6 µM | [7] 24.7 µM | [8] > 34.9 µM | [9] > 48 µM | [10] > 56.9 µM | [11] > 23.1 µM | [12] > 36.1 µM | [13] > 100 µM | [14] > 60.7 µM | [15] > 69 µM | [16] > 32.4 µM | [20] > 100 µM | [17] > 100 µM | [18] > 41.9 µM

O=C(/C=C/c1csc(-c2ccccc2)n1)NCc1ccc(C(=O)NCc2ccccc2)cc1
inactive: [1] > 100 µM | [2] > 100 µM | [3] 32.9 µM | [19] > 100 µM | [4] > 100 µM | [5] > 100 µM | [6] > 100 µM | [8] > 100 µM | [9] > 100 µM | [10] > 100 µM | [11] 41.2 µM | [12] 11.3 µM | [13] > 100 µM | [14] > 100 µM | [15] 26.5 µM | [16] > 100 µM | [20] 64.9 µM | [17] > 100 µM | [18] 13.3 µM

COc1cc2c(cc1C1COc3cc4occc4cc3C1=O)OCO2 (stereo not given)
inactive: [1] 25.7 µM | [2] > 100 µM | [3] 76 µM | [4] > 100 µM | [5] 4.05 µM | [6] > 100 µM | [8] > 100 µM | [9] > 100 µM | [10] > 100 µM | [11] 41.2 µM | [12] 40.3 µM | [13] > 100 µM | [15] 30.1 µM | [16] > 100 µM | [20] 31.8 µM | [17] > 100 µM | [18] 28.1 µM

ON[C@H]1C[C@@H](n2cnc3c(NC4CC4)ncnc32)[C@H](O)[C@@H]1O
inactive: [1] > 100 µM | [2] > 100 µM | [3] > 100 µM | [19] > 100 µM | [4] > 100 µM | [5] > 100 µM | [6] > 100 µM | [8] > 100 µM | [9] > 100 µM | [10] > 100 µM | [11] > 100 µM | [12] > 100 µM | [13] > 100 µM | [14] > 100 µM | [15] > 100 µM | [16] > 100 µM | [20] > 100 µM | [17] > 100 µM | [18] > 100 µM

S=C(N1CCN(c2ccccc2)CC1)N1CCN(c2ccccc2)CC1
inactive: [1] 94.6 µM | [2] > 100 µM | [3] > 100 µM | [19] > 100 µM | [4] > 100 µM | [5] 71.3 µM | [6] > 100 µM | [8] > 100 µM | [9] > 100 µM | [10] > 100 µM | [11] 55.2 µM | [12] > 100 µM | [13] > 100 µM | [14] > 100 µM | [15] > 100 µM | [20] > 100 µM | [17] > 100 µM | [18] > 100 µM

O=S(=O)(O)c1ccc(Nc2ccnc3ccccc23)cc1
inactive: [1] > 100 µM | [2] > 100 µM | [3] > 100 µM | [19] > 100 µM | [4] > 100 µM | [5] > 100 µM | [7] > 100 µM | [8] > 100 µM | [9] > 100 µM | [10] > 100 µM | [11] > 100 µM | [12] > 100 µM | [13] > 100 µM | [15] > 100 µM | [16] > 100 µM | [20] > 100 µM | [17] > 100 µM | [18] > 100 µM

CC1=CC(=O)C(=C(C)C)CC1
inactive: [1] > 100 µM | [2] > 100 µM | [3] > 100 µM | [19] > 100 µM | [4] > 100 µM | [5] > 100 µM | [6] > 100 µM | [7] 53.6 µM | [9] > 100 µM | [11] > 100 µM | [12] > 100 µM | [13] > 100 µM | [14] > 100 µM | [15] > 100 µM | [16] > 100 µM | [17] > 100 µM | [18] > 100 µM
